Where two headings read alike, the source gives them in different places.
Legend:
[1] = tested on: MCF-7 breast cancer cells; conditions: cited from earlier work
[2] = tested on: MDA-MB-231 breast cancer cells; conditions: cited from earlier work
[3] = tested on: HT-29 colorectal cancer cells; conditions: cited from earlier work
[4] = tested on: HCT-116 colorectal cancer cells; conditions: cited from earlier work
[5] = tested on: NCI-H23 lung cancer cells; conditions: cited from earlier work
[6] = tested on: NCI-H460 lung cancer cells; conditions: cited from earlier work
A549 lung cancer cells [7] = conditions: cited from earlier work
[8] = tested on: HBC-4 breast cancer cells; test: antitumor activity, sulforhodamine B cell growth assay, HBC-4; format: cell-based; conditions: HBC-4 breast cancer cells; read-out: antitumor activity GI50 value: 50% growth inhibitory concentration
Experimental: (§1) The THIQ compound containing a macrocyclic structure of the present invention was administered to various cancer cell lines, and the antitumor activity (Go value) was observed. Specifically, verification was performed according to the literature (Yamori, T.; Matsunaga, A.; Sato, S.; Yamazaki, K.; Komi, A.; Ishizu, K. et al. Cancer Res. 1999, 59, 4042) by the following procedure.
(§2) Cells were plated at an appropriate density in a 96-well plate in RPMI 1640 together with 5% fetal bovine serum, and adhered overnight. The cells were exposed to a drug for 48 hours. Then, according to the sulforhodamine B assay described by Skehan et al (Skehan P., Storeng R., Scudiero D., Monks A., McMahon J., Vistica D., Warren J. T., Bokesch H., Kenney S., Boyd M. R. J Natl. Cancer Inst, 1990, 82, 1107-1112), the cell growth rate was measured. The absorbance of the control well (C) and the test well (T) was measured at 525 nm. In addition, the time at which the drug was added was set as time 0, and the absorbance for the test well (T0) was measured. Using these measured values, the cell growth inhibitory effect (% growth=PG) was calculated by the following formula at each concentration of the drug.
(§3) (T<T0): PG=100×[(T−T0)/T]
(§4) The PG values determined above for each cell line were plotted against the concentration (logarithm) on a semi-logarithmic graph, and summarized for each visceral cancer. Concentrations at which the dose-response curve of each cell line crossed the horizontal line of PG=50%, 0%, or −50% were calculated. These concentrations were defined as Log GI50, Log TGI, and Log LC50. Actually, using two data points of the drug concentration before and after crossing each horizontal line, the drug concentration (logarithmic value) at the intersection of the straight line connecting the two points and the horizontal line for each PG was calculated.

[9] = tested on: BSY-1 breast cancer cells; test: antitumor activity, sulforhodamine B cell growth assay, BSY-1; format: cell-based; conditions: BSY-1 breast cancer cells; read-out: antitumor activity GI50 value: 50% growth inhibitory concentration
Experimental: as §1, §2, §3, §4

[10] = tested on: HBC-5 breast cancer cells; test: antitumor activity, sulforhodamine B cell growth assay, HBC-5; format: cell-based; conditions: HBC-5 breast cancer cells; read-out: antitumor activity GI50 value: 50% growth inhibitory concentration
Experimental: as §1, §2, §3, §4

[11] = tested on: MDA-MB-231 breast cancer cells; test: antitumor activity, sulforhodamine B cell growth assay, MDA-MB-231; format: cell-based; conditions: MDA-MB-231 breast cancer cells; read-out: antitumor activity GI50 value: 50% growth inhibitory concentration
Experimental: as §1, §2, §3, §4

[12] = tested on: U251 central nervous system cancer cells; test: antitumor activity, sulforhodamine B cell growth assay, U251; format: cell-based; conditions: U251 central nervous system cancer cells; read-out: antitumor activity GI50 value: 50% growth inhibitory concentration
Experimental: as §1, §2, §3, §4

[13] = tested on: SF-295 central nervous system cancer cells; test: antitumor activity, sulforhodamine B cell growth assay, SF-295; format: cell-based; conditions: SF-295 central nervous system cancer cells; read-out: antitumor activity GI50 value: 50% growth inhibitory concentration
Experimental: as §1, §2, §3, §4

[14] = tested on: SF-539 central nervous system cancer cells; test: antitumor activity, sulforhodamine B cell growth assay, SF-539; format: cell-based; conditions: SF-539 central nervous system cancer cells; read-out: antitumor activity GI50 value: 50% growth inhibitory concentration
Experimental: as §1, §2, §3, §4

[15] = tested on: SNB-75 central nervous system cancer cells; test: antitumor activity, sulforhodamine B cell growth assay, SNB-75; format: cell-based; conditions: SNB-75 central nervous system cancer cells; read-out: antitumor activity GI50 value: 50% growth inhibitory concentration
Experimental: as §1, §2, §3, §4

[16] = tested on: SNB-78 central nervous system cancer cells; test: antitumor activity, sulforhodamine B cell growth assay, SNB-78; format: cell-based; conditions: SNB-78 central nervous system cancer cells; read-out: antitumor activity GI50 value: 50% growth inhibitory concentration
Experimental: as §1, §2, §3, §4

[17] = tested on: HCC2998 colorectal cancer cells; test: antitumor activity, sulforhodamine B cell growth assay, HCC2998; format: cell-based; conditions: HCC2998 colorectal cancer cells; read-out: antitumor activity GI50 value: 50% growth inhibitory concentration
Experimental: as §1, §2, §3, §4

[18] = tested on: KM-12 colorectal cancer cells; test: antitumor activity, sulforhodamine B cell growth assay, KM-12; format: cell-based; conditions: KM-12 colorectal cancer cells; read-out: antitumor activity GI50 value: 50% growth inhibitory concentration
Experimental: as §1, §2, §3, §4

[19] = tested on: HT-29 colorectal cancer cells; test: antitumor activity, sulforhodamine B cell growth assay, HT-29; format: cell-based; conditions: HT-29 colorectal cancer cells; read-out: antitumor activity GI50 value: 50% growth inhibitory concentration
Experimental: as §1, §2, §3, §4

[20] = tested on: HCT-15 colorectal cancer cells; test: antitumor activity, sulforhodamine B cell growth assay, HCT-15; format: cell-based; conditions: HCT-15 colorectal cancer cells; read-out: antitumor activity GI50 value: 50% growth inhibitory concentration
Experimental: as §1, §2, §3, §4

[21] = tested on: HCT-116 colorectal cancer cells; test: antitumor activity, sulforhodamine B cell growth assay, HCT-116; format: cell-based; conditions: HCT-116 colorectal cancer cells; read-out: antitumor activity GI50 value: 50% growth inhibitory concentration
Experimental: as §1, §2, §3, §4

[22] = tested on: NCI-H226 lung cancer cells; test: antitumor activity, sulforhodamine B cell growth assay, NCI-H226; format: cell-based; conditions: NCl-H226 lung cancer cells; read-out: antitumor activity GI50 value: 50% growth inhibitory concentration
Experimental: as §1, §2, §3, §4

[23] = tested on: NCI-H522 lung cancer cells; test: antitumor activity, sulforhodamine B cell growth assay, NCI-H522; format: cell-based; conditions: NCl-H522 lung cancer cells; read-out: antitumor activity GI50 value: 50% growth inhibitory concentration
Experimental: as §1, §2, §3, §4

[24] = tested on: NCI-H460 lung cancer cells; test: antitumor activity, sulforhodamine B cell growth assay, NCI-H460; format: cell-based; conditions: NCl--H460 lung cancer cells; read-out: antitumor activity GI50 value: 50% growth inhibitory concentration
Experimental: as §1, §2, §3, §4

A549 lung cancer cells [25] = test: antitumor activity, sulforhodamine B cell growth assay, A549; format: cell-based; conditions: A549 lung cancer cells; read-out: antitumor activity GI50 value: 50% growth inhibitory concentration
Experimental: as §1, §2, §3, §4

DMS273 lung cancer cells = test: antitumor activity, sulforhodamine B cell growth assay, DMS273; format: cell-based; conditions: DMS273 lung cancer cells; read-out: antitumor activity GI50 value: 50% growth inhibitory concentration
Experimental: as §1, §2, §3, §4

DMS114 lung cancer cells = test: antitumor activity, sulforhodamine B cell growth assay, DMS114; format: cell-based; conditions: DMS114 lung cancer cells; read-out: antitumor activity GI50 value: 50% growth inhibitory concentration
Experimental: as §1, §2, §3, §4

LOX-IMVI melanoma cells = test: antitumor activity, sulforhodamine B cell growth assay, LOX-IMVI; format: cell-based; conditions: LOX-IMVI melanoma cells; read-out: antitumor activity GI50 value: 50% growth inhibitory concentration
Experimental: as §1, §2, §3, §4

SK-OV-3 cancer cells = test: antitumor activity, sulforhodamine B cell growth assay, SK-OV-3; format: cell-based; conditions: SK-OV-3 cervical cancer cells; read-out: antitumor activity GI50 value: 50% growth inhibitory concentration
Experimental: as §1, §2, §3, §4

ACHN kidney cancer cells = test: antitumor activity, sulforhodamine B cell growth assay, ACHN; format: cell-based; conditions: ACHN kidney cancer cells; read-out: antitumor activity GI50 value: 50% growth inhibitory concentration
Experimental: as §1, §2, §3, §4

[26] = tested on: St-4 gastric cancer cells; test: antitumor activity, sulforhodamine B cell growth assay, St-4; format: cell-based; conditions: SI-4 gastric cancer cells; read-out: antitumor activity GI50 value: 50% growth inhibitory concentration
Experimental: as §1, §2, §3, §4

[27] = tested on: MKN1 gastric cancer cells; test: antitumor activity, sulforhodamine B cell growth assay, MKN1; format: cell-based; conditions: MKN1 gastric cancer cells; read-out: antitumor activity GI50 value: 50% growth inhibitory concentration
Experimental: as §1, §2, §3, §4

[28] = tested on: MKN-B gastric cancer cells; test: antitumor activity, sulforhodamine B cell growth assay, MKN-B; format: cell-based; conditions: MKN-B gastric cancer cells; read-out: antitumor activity GI50 value: 50% growth inhibitory concentration
Experimental: as §1, §2, §3, §4

[29] = tested on: MKN-A gastric cancer cells; test: antitumor activity, sulforhodamine B cell growth assay, MKN-A; format: cell-based; conditions: MKN-A gastric cancer cells; read-out: antitumor activity GI50 value: 50% growth inhibitory concentration
Experimental: as §1, §2, §3, §4

[30] = tested on: MKN45 gastric cancer cells; test: antitumor activity, sulforhodamine B cell growth assay, MKN45; format: cell-based; conditions: MKN45 gastric cancer cells; read-out: antitumor activity GI50 value: 50% growth inhibitory concentration
Experimental: as §1, §2, §3, §4

[31] = tested on: DU-145 prostate cancer cells; test: antitumor activity, sulforhodamine B cell growth assay, DU-145; format: cell-based; conditions: DU-145 prostate cancer cells; read-out: antitumor activity GI50 value: 50% growth inhibitory concentration
Experimental: as §1, §2, §3, §4

SMILES: COc1cc2c(cc1O)CCN[C@]21CS[C@@H]2c3c(OC(C)=O)c(C)c4c(c3[C@H](COC1=O)N1[C@@H]2[C@H]2c3c(cc(C)c(OC)c3O)C[C@@H]([C@@H]1O)N2C)OCO4 [Ecteinascidin 743, reference compound]
- GI50 ([1]; MCF-7, reference values from literature (Leal et al. Br. J Pharmacol, 2010), read-out: GI50 value: 50% growth inhibitory concentration): 2.6 nM
- GI50 ([2]; MDA-MB-231, reference values from literature (Leal et al. Br. J Pharmacol, 2010), read-out: GI50 value: 50% growth inhibitory concentration): 3.9 nM
- GI50 ([3]; HT-29, reference values from literature (Leal et al. Br. J Pharmacol, 2010), read-out: GI50 value: 50% growth inhibitory concentration): 9.8 nM
- GI50 ([4]; HCT-116, reference values from literature (Leal et al. Br. J Pharmacol, 2010), read-out: GI50 value: 50% growth inhibitory concentration): 4.9 nM
- GI50 ([5]; NCI-H23, reference values from literature (Leal et al. Br. J Pharmacol, 2010), read-out: GI50 value: 50% growth inhibitory concentration): 2.1 nM
- GI50 ([6]; NCI-H460, reference values from literature (Leal et al. Br. J Pharmacol, 2010), read-out: GI50 value: 50% growth inhibitory concentration): 1.8 nM
- GI50 (A549 lung cancer cells [7]; A549, reference values from literature (Leal et al. Br. J Pharmacol, 2010), read-out: GI50 value: 50% growth inhibitory concentration): 10.4 nM

SMILES: COc1c(C)cc2c(c1C)[C@H]1N(C)[C@@](C)(C2)C(C)N2C1(C)[C@@H]1CCC3(CCCC4=C3Cc3ccc(C)cc34)C(=O)OC[C@@]2(C)c2c3c(c(C)c(C)c21)OCO3 (stereo partly shown) [drawing 159]
- GI50 ([1]; MCF-7 breast cancer cells, comparative value based on the literature, read-out: antitumor activity GI50 value: 50% growth inhibitory concentration): 1.7 nM
- GI50 ([2]; MDA-MB-231 breast cancer cells, comparative value based on the literature, read-out: antitumor activity GI50 value: 50% growth inhibitory concentration): 3.4 nM
- GI50 ([3]; HT-29 colorectal cancer cells, comparative value based on the literature, read-out: antitumor activity GI50 value: 50% growth inhibitory concentration): 2.4 nM
- GI50 ([4]; HCT-116 colorectal cancer cells, comparative value based on the literature, read-out: antitumor activity GI50 value: 50% growth inhibitory concentration): 6.4 nM
- GI50 ([5]; NCl-H23 lung cancer cells, comparative value based on the literature, read-out: antitumor activity GI50 value: 50% growth inhibitory concentration): 5.3 nM
- GI50 ([6]; NCl--H460 lung cancer cells, comparative value based on the literature, read-out: antitumor activity GI50 value: 50% growth inhibitory concentration): 1.5 nM
- GI50 (A549 lung cancer cells [7]; A549 lung cancer cells, comparative value based on the literature, read-out: antitumor activity GI50 value: 50% growth inhibitory concentration): 1.3 nM

SMILES: CC1=C(C)C(=O)C2=C(CC3(C)[C@H]4c5c(cc(C)c(C)c5C)C[C@@](C)(C(C)N3[C@H]2CNC(=O)C(C)C)N4C)C1=O (stereo partly shown) [drawing 164]
- GI50 [8]: 59 nM
- GI50 [9]: 34 nM
- GI50 [10]: 62 nM
- GI50 [11]: 130 nM
- GI50 [12]: 370 nM
- GI50 [13]: 500 nM
- GI50 [14]: 180 nM
- GI50 [15]: 150 nM
- GI50 [16]: 63 nM
- GI50 [17]: 350 nM
- GI50 [18]: 530 nM
- GI50 [19]: 190 nM
- GI50 [20]: 390 nM
- GI50 [21]: 290 nM
- GI50 [22]: 310 nM
- GI50 [23]: 43 nM
- GI50 [24]: 400 nM
- GI50 (A549 lung cancer cells [25]): 1600 nM
- GI50 (DMS273 lung cancer cells): 270 nM
- GI50 (DMS114 lung cancer cells): 35 nM
- GI50 (LOX-IMVI melanoma cells): 61 nM
- GI50 (SK-OV-3 cancer cells): 540 nM
- GI50 (ACHN kidney cancer cells): 320 nM
- GI50 [26]: 430 nM
- GI50 [27]: 52 nM
- GI50 [28]: 170 nM
- GI50 [29]: 250 nM
- GI50 [30]: 300 nM
- GI50 [31]: 490 nM
